Tested on: up to 32 different microorganisms
Assay: in vitro antibacterial activity (MIC), agar dilution on Brain Heart Infusion (BHI) agar with Steers replicator
Assay type: cell-based
Conditions: unit assumed
In short: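 Up to 32 strains were replicator-inoculated (1:100, or 1:10 for Micrococcus and Streptococcus) onto BHI agar plates holding serial compound dilutions and kept 20-24 h at 35-37° C. Plates were read visually against drug-free growth controls, with erythromycin A run alongside; MIC was the lowest concentration giving no growth, slight haze or sparse colonies.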

Row | SMILES | MIC (organism code AA) [µg/mL] | MIC (organism code CC) [µg/mL] | MIC (organism code DD) [µg/mL] | MIC (organism code EE) [µg/mL] | MIC (organism code FF) [µg/mL] | MIC (organism code GG) [µg/mL] | MIC (organism code HH) [µg/mL] | MIC (organism code II) [µg/mL] | MIC (organism code JJ) [µg/mL] | MIC (organism code KK) [µg/mL] | MIC (organism code LL) [µg/mL] | MIC (organism code MM) [µg/mL] | MIC (organism code NN) [µg/mL] | MIC (organism code OO) [µg/mL] | MIC (organism code PP) [µg/mL] | MIC (organism code QQ) [µg/mL] | MIC (organism code RR) [µg/mL] | MIC (organism code SS) [µg/mL] | MIC (organism code TT) [µg/mL] | MIC (organism code UU) [µg/mL] | other results
1 | CC[C@H]1OC(=O)[C@H](C)C(=O)[C@H](C)[C@@H](O[C@@H]2O[C@H](C)C[C@H](N(C)C)[C@H]2O)[C@@](C)(OCCNOCc2ccc([N+](=O)[O-])cc2)C[C@@H](C)C(=O)[C@H](C)[C@H]2NC(=O)O[C@@]21C [Example 238, Compound of Formula (IX): L is CO, T is NH, R is —CH2CH2NHOCH2(4-NO2)-phenyl] | 0.2 | > 100 | 0.39 | 0.39 | 0.39 | > 100 | 0.39 | 0.05 | 0.02 | 0.02 | 0.02 | > 100 | 0.2 | 0.05 | 0.2 | 100 | 0.39 | > 100 | > 100 | 0.2 | MIC (organism code BB): 0.2 µg/mL; MIC (organism code VV): 0.1 µg/mL; MIC (organism code WW): 8 µg/mL; MIC (organism code XX): 0.03 µg/mL; MIC (organism code YY): 0.03 µg/mL; MIC (organism code ZZ): > 64 µg/mL; MIC (organism code ZZA): 0.25 µg/mL
2 | CC[C@H]1OC(=O)[C@H](C)C(=O)[C@H](C)[C@@H](O[C@@H]2O[C@H](C)C[C@H](N(C)C)[C@H]2O)[C@@](C)(OCC(=O)c2ccccc2)C[C@@H](C)C(=O)[C@H](C)[C@H]2NC(=O)O[C@@]21C [Example 239, Compound of Formula (IX): L is CO, T is NH, R is —CH2C(O)-phenyl] | 6.2 | > 100 | 6.2 | 6.2 | 6.2 | > 100 | 6.2 | 1.56 | 0.39 | 0.39 | 0.39 | > 100 | 1.56 | 0.39 | 1.56 | > 100 | 6.1 | > 100 | > 100 | 50 | MIC (organism code BB): 6.2 µg/mL; MIC (organism code VV): 3.1 µg/mL; MIC (organism code WW): 64 µg/mL; MIC (organism code XX): 0.25 µg/mL; MIC (organism code YY): 0.25 µg/mL; MIC (organism code ZZ): > 128 µg/mL; MIC (organism code ZZA): 1 µg/mL
3 | CC[C@H]1OC(=O)[C@H](C)C(=O)[C@H](C)[C@@H](O[C@@H]2O[C@H](C)C[C@H](N(C)C)[C@H]2O)[C@@](C)(OCC(=O)c2ccc(F)cc2)C[C@@H](C)C(=O)[C@H](C)[C@H]2NC(=O)O[C@@]21C [Example 240, Compound of Formula (IX): L is CO, T is NH, R is —CH2C(O)-(4-F-phenyl)] | 3.1 | > 100 | 6.2 | 3.1 | 3.1 | > 100 | 3.1 | 0.78 | 0.39 | 0.39 | 0.39 | > 100 | 0.78 | 0.39 | 1.56 | > 100 | 3.1 | > 100 | > 100 | 6.2 | MIC (organism code BB): 3.1 µg/mL; MIC (organism code VV): 1.56 µg/mL; MIC (organism code WW): 32 µg/mL; MIC (organism code XX): 0.25 µg/mL; MIC (organism code YY): 0.25 µg/mL; MIC (organism code ZZ): > 128 µg/mL; MIC (organism code ZZA): 1 µg/mL
4 | CC[C@H]1OC(=O)[C@H](C)C(=O)[C@H](C)[C@@H](O[C@@H]2O[C@H](C)C[C@H](N(C)C)[C@H]2O)[C@@](C)(OCC=NNC(=O)c2ccccc2)C[C@@H](C)C(=O)[C@H](C)[C@H]2NC(=O)O[C@@]21C [Example 241, Compound of Formula (IX): L is CO, T is NH, R is —CH2CH═NNHC(O)phenyl] | 3.1 | > 100 | 6.2 | 6.2 | 6.2 | > 100 | 6.2 | 1.56 | 0.39 | 1.56 | 0.78 | > 100 | 6.2 | 0.78 | 3.1 | > 100 | 1.56 | > 100 | > 100 | 100 | MIC (organism code VV): 6.2 µg/mL; MIC (organism code WW): 16 µg/mL; MIC (organism code XX): 0.5 µg/mL; MIC (organism code YY): 0.25 µg/mL; MIC (organism code ZZ): > 128 µg/mL; MIC (organism code ZZA): 4 µg/mL
5 | CCC1OC(=O)C(C)C(=O)C(C)C(OC2OC(C)CC(N(C)C)C2O)C(C)(OCCCc2cnc3ccccc3c2)CC(C)C(=O)C(C)C2NC(=O)OC12C (stereo not shown) [Example 242, Compound of Formula (IX): L is CO, T is NH, R is —CH2CH2CH2(3-quinolyl)] | 0.2 | > 100 | 0.2 | 0.2 | 0.2 | > 100 | 0.39 | 0.1 | 0.02 | 0.05 | 0.01 | > 100 | 0.2 | 0.05 | 0.39 | > 100 | 0.78 | > 100 | > 100 | 0.78 | MIC (organism code VV): 0.39 µg/mL; MIC (organism code WW): 8 µg/mL; MIC (organism code XX): 0.03 µg/mL; MIC (organism code YY): 0.03 µg/mL; MIC (organism code ZZ): > 128 µg/mL; MIC (organism code ZZA): 0.25 µg/mL
